From patent US20230165251A1, “SUBSTITUTED TOLYL FUNGICIDES AND THEIR MIXTURES” (FMC Corporation, priority 2020, published 2023)

Tests used:
[1] = system: Puccinia recondita f. sp. tritici; test: Test B: preventive spray on wheat seedlings, wheat leaf rust; assay type: in vivo; conditions: for pest or weed control at 10 ppm: Puccinia recondita, 192 h, read-out: Test B disease control rating
Description: (§1) General protocol for preparing test suspensions for Tests A-F: the test compounds were first dissolved in acetone in an amount equal to 3% of the final volume and then suspended at the desired concentration (in ppm) in acetone and purified water (50/50 mix by volume) containing 250 ppm of the surfactant PEG400 (polyhydric alcohol esters). The resulting test suspensions were then used in Tests A-F.
The test solution was sprayed to the point of run-off on wheat seedlings. The following day the seedlings were inoculated with a spore suspension of Puccinia recondita f. sp. tritici (the causal agent of wheat leaf rust) and incubated in a saturated atmosphere at 20° C. for 24 h, and then moved to a growth chamber at 20° C. for 7 days, after which time disease ratings were made.
(§2) A rating of 100 indicates 100% disease control and a rating of 0 indicates no disease control (relative to the controls). A dash (-) indicates the compound was not tested.

Phakopsora pachyrhizi = test: Test D: preventive spray on soybean seedlings, Asian soybean rust; assay type: in vivo; conditions: Rate 10 ppm; for pest or weed control at 10 ppm: Phakopsora pachyrhizi, 216 h, read-out: Test D disease control rating
Description: as §1
The test solution was sprayed to the point of run-off on soybean seedlings. The following day the seedlings were inoculated with a spore suspension of Phakopsora pachyrhizi (the causal agent of Asian soybean rust) and incubated in a saturated atmosphere at 22° C. for 24 h and then moved to a growth chamber at 22° C. for 8 days, after which time visual disease ratings were made.
as §2

Molecule | Test B disease control rating ([1]; Rate 2 ppm) [%] | Test D disease control rating (Phakopsora pachyrhizi) [%] | Test B disease control rating ([1]; Rate 10 ppm) [%] | pest or weed control at 10 ppm (Phakopsora pachyrhizi) [%] | pest or weed control at 10 ppm ([1]; Rate 10 ppm) [%]
methyl N-[[5-[2-[2,6-difluoro-4-(1-methylethyl)phenyl]-2H-1,2,3-triazol-4-yl]-2-methylphenyl]methyl]carbamate [Compound 108] | 100 |  |  |  | 
CC=Cc1cc(F)c(-n2ccc(-c3ccc(C)c(CNC(=O)OC)c3)n2)c(F)c1 [compound 147] |  | 100 | 99 |  | 
COC(=O)NCc1cc(-c2cn(-c3c(Cl)cc(OC)cc3OC)nn2)ccc1C [compound 120] |  | 0 | 0 |  | 
COC(=O)NCc1cc(-c2ccn(-c3c(F)cc(N)cc3Cl)n2)ccc1C [compound 39] |  | 0 | 0 |  | 
CO/N=C(\C)c1cc(F)c(-n2ccc(-c3ccc(C)c(CNC(=O)OC)c3)n2)c(F)c1 [Compound 83, methyl (E)-N-[[5-[1-[2,6-difluoro-4-[1-(methoxyimino)ethyl]phenyl]-1H-pyrazol-3-yl]-2-methylphenyl]methyl]carbamate] |  |  |  | 100 | 100
CCCc1cc(F)c(-n2ccc(-c3ccc(C)c(CNC(=O)OC)c3)n2)c(F)c1 [compound 145] |  | 100 | 100 |  | 
COC(=O)NCc1cc(-c2ccn(-c3c(F)cc(C4OCCCO4)cc3F)n2)ccc1C [Compound 134] |  | 100 | 89 |  | 
COC(=O)NCc1cc(-c2ccn(-c3c(Cl)cccc3Cl)n2)ccc1C [compound 44] |  | 100 | 68 |  | 
COC(=O)NCc1cc(-c2ccn(-c3c(C)cc(N)cc3C)n2)ccc1C [compound 38] |  | 0 | 0 |  | 
COC(=O)NNc1cc(-c2ccn(-c3c(F)cc(C(C)C)cc3F)n2)ccc1C [Compound 155] |  |  |  | 100 | 91
COC(=O)NCc1cc(-c2ccn(-c3c(F)cc(N4CCN(C)CC4)cc3F)n2)ccc1C [compound 148] |  | 0 | 0 |  | 
COC(=O)NCc1cc(-c2ccn(-c3c(Br)cccc3Br)n2)ccc1C [compound 58] |  | 100 | 68 |  | 
COC(=O)NCc1cc(-c2cn(-c3c(C)cc(OC)cc3C)nn2)ccc1C [compound 124] |  | 0 | 0 |  | 
COC(=O)NCc1cc(-c2ccn(-c3c(F)cc(I)cc3SC)n2)ccc1C [compound 26] |  | 87 | 73 |  | 
COC(=O)NCc1cc(-c2ccn(-c3c(Br)cccc3I)n2)ccc1C [compound 52] |  | 99 | 0 |  | 
COC(=O)NCc1cc(-c2ccn(-c3c(Cl)cc(Cl)cc3Cl)n2)ccc1C [compound 57] |  | 100 | 74 |  | 
COC(=O)NCc1cc(-c2cn(-c3c(F)cc(I)cc3F)nn2)ccc1C [compound 125] |  | 0 | 68 |  | 
COC(=O)NCc1cc(-c2ccn(-c3c(Cl)cc(N)cc3Cl)n2)ccc1C [compound 55] |  | 0 | 0 |  | 
COC(=O)NCc1cc(-c2ccn(-c3c(F)cc(N(C)C)cc3F)n2)ccc1C [compound 152] |  | 99 | 98 |  | 
COC(=O)NCc1cc(-c2ccn(-c3c(F)cc(N4CCCCC4)cc3F)n2)ccc1C [compound 151] |  | 19 | 68 |  | 
COC(=O)NCc1cc(-c2ccn(-c3c(C)cc(Cl)cc3C)n2)ccc1C [compound 49] |  | 99 | 68 |  | 
COC(=O)NCc1cc(-c2cn(-c3c(Br)cc(OC)cc3[N+](=O)[O-])nn2)ccc1C [compound 129] |  | 0 | 0 |  | 
COC(=O)NCc1cc(-c2ccn(-c3c(F)cc(OC)cc3OC)n2)ccc1C [compound 34] |  | 96 | 28 |  | 
COC(=O)NCc1cc(-c2ccn(-c3c(C)cccc3Br)n2)ccc1C [compound 61] |  | 97 | 68 |  | 
COC(=O)NCc1cc(-c2cn(-c3c(F)cc(Br)cc3F)nn2)ccc1C [compound 126] |  | 0 | 57 |  | 

Molecule | Test B disease control rating ([1]; Rate 2 ppm) [%] | Test D disease control rating (Phakopsora pachyrhizi) [%] | Test B disease control rating ([1]; Rate 10 ppm) [%] | pest or weed control at 10 ppm (Phakopsora pachyrhizi) [%] | pest or weed control at 10 ppm ([1]; Rate 10 ppm) [%]
COC(=O)NCc1cc(-c2ccn(-c3c(Cl)cc(Br)cc3Cl)n2)ccc1C [compound 56] |  | 100 | 80 |  | 
COC(=O)NCc1cc(-c2ccn(-c3c(F)cc(C4CC4(F)F)cc3F)n2)ccc1C (stereo not shown) [Compound 89, methyl N-[[5-[1-[4-(2,2-difluorocyclopropyl)-2,6-difluorophenyl]-1H-pyrazol-3-yl]-2-methylphenyl]methyl]carbamate] |  |  |  | 100 | 100
COC(=O)NCc1cc(-c2ccn(-c3c(F)cc(Cl)cc3Cl)n2)ccc1C [compound 51] |  | 100 | 100 |  | 
COC(=O)NCc1cc(-c2ccn(-c3c(Cl)cccc3I)n2)ccc1C [compound 59] |  | 87 | 45 |  | 
COC(=O)NCc1cc(-c2ccn(-c3c(Cl)cccc3Br)n2)ccc1C [compound 60] |  | 100 | 68 |  | 
COC(=O)NCc1cc(-c2cn(-c3c(F)cc(C)cc3F)nn2)ccc1C [compound 119] |  | 0 | 100 |  | 
COC(=O)NCc1cc(-c2cn(-c3c(F)cc(OC)cc3F)nn2)ccc1C [compound 130] |  | 0 | 68 |  | 
COC(=O)NCc1cc(-c2ccn(-c3c(F)cc(SC)cc3F)n2)ccc1C [compound 27] |  | 100 | 99 |  | 
COC(=O)NCc1cc(-c2ccn(-c3c(F)cc(C4(C)CC4)cc3F)n2)ccc1C [compound 74] |  | 100 | 100 |  | 
COC(=O)NCc1cc(-c2ccn(-c3c(F)cc(OCF)cc3F)n2)ccc1C [compound 73] |  | 100 | 100 |  | 
COC(=O)NCc1cc(-c2ccn(-c3c(C)cc(OC)cc3C)n2)ccc1C [compound 40] |  | 99 | 0 |  | 
COC(=O)NCc1cc(-c2ccn(-c3c(F)cc(N4CCCC4)cc3F)n2)ccc1C [compound 150] |  | 0 | 68 |  | 
CNc1cc(F)c(-n2ccc(-c3ccc(C)c(CNC(=O)OC)c3)n2)c(F)c1 [compound 36] |  | 100 | 68 |  | 
COC(=O)NCc1cc(-c2ccn(-c3c(F)cccc3Br)n2)ccc1C [compound 46] |  | 100 | 68 |  | 
COC(=O)NCc1cc(-c2cn(-c3c(Br)cc(OC)cc3Br)nn2)ccc1C [compound 128] |  | 0 | 0 |  | 
COC(=O)NCc1cc(-c2ccn(-c3c(Cl)cc([N+](=O)[O-])cc3Cl)n2)ccc1C [compound 54] |  | 0 | 0 |  | 
COC(=O)NNc1cc(-c2ccn(-c3c(F)cccc3F)n2)ccc1C [Compound 154] |  |  |  | 25 | 0
COC(=O)NCc1cc(-c2ccn(-c3c(Br)cc(I)cc3Br)n2)ccc1C [compound 136] |  | 59 | 19 |  | 
methyl N-[[5-[1-[2,6-difluoro-4-(2-propyn-1-yloxy)phenyl]-1H-pyrazol-3-yl]-2-methylphenyl]methyl]carbamate [Compound 30] |  |  | 98 |  | 
COC(=O)NCc1cc(-c2ccn(-c3c(F)cc(Br)cc3Cl)n2)ccc1C [compound 50] |  | 100 | 100 |  | 
COC(=O)NCc1cc(-c2ccn(-c3c(F)cc(CF)cc3F)n2)ccc1C [compound 77] |  | 100 | 100 |  | 
CO/N=C(/C)c1cc(F)c(-n2ccc(-c3ccc(C)c(CNC(=O)OC)c3)n2)c(F)c1 [Compound 99, methyl (Z)-N-[[5-[1-[2,6-difluoro-4-[1-(methoxyimino)ethyl]phenyl]-1H-pyrazol-3-yl]-2-methylphenyl]methyl]carbamate] |  |  |  | 100 | 100
COC(=O)NCc1cc(-c2ccn(-c3c(C)cc([N+](=O)[O-])cc3C)n2)ccc1C [compound 35] |  | 0 | 0 |  | 
COC(=O)NCc1cc(-c2cn(-c3c(Cl)cc(OC)cc3Cl)nn2)ccc1C [compound 123] |  | 0 | 0 |  | 
methyl N-[[5-[1-[2,6-dichloro-4-(1,1-dimethylethyl)phenyl]-1H-pyrazol-3-yl]-2-methylphenyl]methyl]carbamate [Compound 135] |  |  | 86 |  | 
